Test results as given in PubChem BioAssay (NCI).
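Exposure lasted 48 hours, with cells grown in 96-well plates and compounds tested at five concentrations. GI50 = concentration required for 50% inhibition of growth. The concentration for full growth arrest is given as TGI.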

Experiments:
Assay in all cases: DTP human tumour cell line panel, 48 h
[1] = tested on: DMS 114 small cell lung
[2] = tested on: DLD-1 colon
[3] = tested on: XF 498 CNS
[4] = tested on: MOLT-4 leukemia
[5] = tested on: NCI-H23 lung
[6] = tested on: MALME-3M melanoma
[7] = tested on: A549 NSCLC
[8] = tested on: EKVX NSCLC
[9] = tested on: UACC-257 melanoma
[10] = tested on: NCI-H226 lung
[11] = tested on: ACHN renal
[12] = tested on: HL-60(TB) leukemia
[13] = tested on: SR leukemia
[14] = tested on: OVCAR-8 ovarian
[15] = tested on: SN12C renal
[16] = tested on: SNB-75 CNS
[17] = tested on: RXF 393 renal
[18] = tested on: NCI-H460 lung
[19] = tested on: KM12 colon
[20] = tested on: SF-539 CNS
[21] = tested on: SF-295 CNS
[22] = tested on: HCC-2998 colon
[23] = tested on: SF-268 CNS
[24] = tested on: TK-10 renal
[25] = tested on: A498 renal
[26] = tested on: KM20L2 colon
[27] = tested on: UO-31 renal
[28] = tested on: UACC-62 melanoma
[29] = tested on: COLO 205 colon
[30] = tested on: U251 CNS
[31] = tested on: HOP-62 NSCLC
[32] = tested on: M14 melanoma
[33] = tested on: SNB-19 CNS
[34] = tested on: NCI-H522 lung
[35] = tested on: SW-620 colon
[36] = tested on: OVCAR-3 ovarian
[37] = tested on: IGROV1 ovarian
[38] = tested on: SK-MEL-28 melanoma
[39] = tested on: HT29 colon
[40] = tested on: OVCAR-5 ovarian
[41] = tested on: OVCAR-4 ovarian
[42] = tested on: DMS 273 small cell lung
[43] = tested on: HCT-116 colon
[44] = tested on: SK-MEL-5 melanoma
[45] = tested on: SNB-78 CNS
[46] = tested on: LXFL 529 NSCLC
[47] = tested on: HCT-15 colon
[48] = tested on: HOP-92 NSCLC
[49] = tested on: SK-OV-3 ovarian
[50] = tested on: M19-MEL melanoma
[51] = tested on: SK-MEL-2 melanoma
[52] = tested on: LOX IMVI melanoma
[53] = tested on: CAKI-1 renal
[54] = tested on: 786-0 renal

CCC[CH2][Sn]([CH2]CCC)([O]C(=O)c1ccc(C)c(N)c1)[O]C(=O)c1ccc(C)c(N)c1
GI50 [1]: 0.132 µM
TGI [1]: 0.322 µM
GI50 [2]: 0.282 µM
TGI [2]: 1.25 µM
GI50 [3]: 0.181 µM
TGI [3]: 0.353 µM
GI50 [4]: 0.108 µM
TGI [4]: 0.643 µM
GI50 [5]: 0.203 µM
TGI [5]: 1 µM
GI50 [6]: 0.179 µM
TGI [6]: 0.776 µM
GI50 [7]: 2.82 µM
TGI [7]: 8.33 µM
GI50 [8]: 0.6 µM
TGI [8]: 1.94 µM
GI50 [9]: 0.334 µM
TGI [9]: 1.62 µM
GI50 [10]: 0.334 µM
TGI [10]: 1.44 µM
GI50 [11]: 0.352 µM
TGI [11]: 1.32 µM
GI50 [12]: 0.144 µM
TGI [12]: 0.863 µM
GI50 [13]: 0.179 µM
TGI [13]: 3.62 µM
GI50 [14]: 0.91 µM
TGI [14]: 2.12 µM
GI50 [15]: 0.537 µM
TGI [15]: 1.83 µM
GI50 [16]: 0.502 µM
TGI [16]: 1.87 µM
GI50 [17]: 0.116 µM
TGI [17]: 0.511 µM
GI50 [18]: 1.43 µM
TGI [18]: 2.74 µM
GI50 [19]: 1.31 µM
TGI [19]: 2.61 µM
GI50 [20]: 0.619 µM
TGI [20]: 1.89 µM
GI50 [21]: 1.24 µM
TGI [21]: 2.49 µM
GI50 [22]: 1.14 µM
TGI [22]: 2.36 µM
GI50 [23]: 0.418 µM
TGI [23]: 1.63 µM
GI50 [24]: 0.515 µM
TGI [24]: 1.66 µM
GI50 [25]: 0.351 µM
TGI [25]: 1.21 µM
GI50 [26]: 1.5 µM
TGI [26]: 2.82 µM
GI50 [27]: 1.11 µM
TGI [27]: 2.31 µM
GI50 [28]: 0.378 µM
TGI [28]: 1.44 µM
GI50 [29]: 0.33 µM
TGI [29]: 1.38 µM
GI50 [30]: 0.287 µM
TGI [30]: 1.28 µM
GI50 [31]: 2.29 µM
TGI [31]: 3.78 µM
GI50 [32]: 0.647 µM
TGI [32]: 1.92 µM
GI50 [33]: 1.2 µM
TGI [33]: 2.43 µM
GI50 [34]: 0.018 µM
TGI [34]: 0.117 µM
GI50 [35]: 0.224 µM
TGI [35]: 1.04 µM
GI50 [36]: 1.07 µM
TGI [36]: 2.26 µM
GI50 [37]: 1.16 µM
TGI [37]: 2.42 µM
GI50 [38]: 0.347 µM
TGI [38]: 1.57 µM
GI50 [39]: 1.34 µM
TGI [39]: 2.64 µM
GI50 [40]: 1.82 µM
TGI [40]: 3.22 µM
GI50 [41]: 1.24 µM
TGI [41]: 2.48 µM
GI50 [42]: 0.623 µM
TGI [42]: 1.97 µM
GI50 [43]: 0.527 µM
TGI [43]: 1.86 µM
GI50 [44]: 1.08 µM
TGI [44]: 2.28 µM
GI50 [45]: 0.277 µM
TGI [45]: 1.54 µM
GI50 [46]: 0.0473 µM
TGI [46]: 0.176 µM
GI50 [47]: 0.698 µM
TGI [47]: 2.01 µM
GI50 [48]: 0.305 µM
TGI [48]: 1.7 µM
GI50 [49]: 1.84 µM
TGI [49]: 3.24 µM
GI50 [50]: 0.244 µM
TGI [50]: 1.28 µM
GI50 [51]: 0.172 µM
TGI [51]: 0.72 µM
GI50 [52]: 0.185 µM
TGI [52]: 0.681 µM
GI50 [53]: 0.136 µM
TGI [53]: 1.38 µM
GI50 [54]: 0.323 µM
TGI [54]: 1.31 µM
